Experimental data published in patent US9988407B2, “Prodrugs of prostate specific membrane antigen (PSMA) inhibitor” (THE JOHNS HOPKINS UNIVERSITY, priority 2014, dated 2018).

Tests used:
[1] = Chemical stability in HBSS buffer (pH 7.4) / simulated gastric fluid; assay type: physicochemical; conditions: for chemical stability: chemical hydrolysis / HBSS buffer; for Percentage remaining: HBSS, 10 μM, 37° C.
Experimental: The chemical stability of prodrugs was evaluated using simulated gastric fluid (pH 1.2) and Hanks' Balanced Salt Solution (HBSS) buffer (pH 7.4). Briefly, prodrugs were spiked (10 μM) in respective solutions and incubated at 37° C. for 1 h. At predetermined time points (0, 30 and 60 min), aliquots of 100 μL were removed and diluted with 100 μL of water. Prodrug disappearance was monitored using the developed liquid chromatography and tandem mass spectrometry (LC/MS/MS) method described below.
(§1) For LC/MS/MS, prodrugs were separated with Thermo Scientific Accela UPLC system coupled to Accela open autosampler on an Agilent C18 (100×2.1 mm id) UPLC column. The autosampler was temperature controlled and operating at 10° C. The mobile phase used for the chromatographic separation was composed of acetonitrile/water containing 0.1% formic acid and was run at a flow rate of 0.5 mL/minute for 4.5 minutes using gradient elution. The column effluent was monitored using TSQ Vantage triple-quadrupole mass spectrometric detector, equipped with an electrospray probe set in the positive ionization mode. Samples were introduced into the ionization source through a heated nebulized probe (350° C.).
(§2) For quantification of compound remaining, disappearance of prodrugs was measured from ratio of peak areas of analyte to IS. Percentage remaining was calculated in the following manner: […]

[2] = In vivo pharmacokinetics in mice, peroral, bioanalysis method 1 (total prodrug exposure); conditions: oral dosing; for permeability in vivo: mice
Experimental: Blood was obtained via cardiac puncture and tissue dissected at 0 min, 15 min, 30 min, 1 h, 2 h, and 4 h post dose (n=3 per time point). Single time point studies were conducted at 30 min (N=3) following dosing. Plasma was harvested from blood by centrifugation. Mean concentration-time data was used for pharmacokinetic (PK) analysis. Non-compartmental-analysis module in WinNonlin® (version 5.3) was used to assess pharmacokinetic parameters. Peak plasma concentrations (Cmax) and time to Cmax (Tmax) were the observed values. Area under the curve (AUC) was calculated by log-linear (p.o.) trapezoidal rule to the end of sample collection (AUClast) and extrapolated to infinity (AUC0-∞) by dividing the last quantifiable concentration by the terminal disposition rate constant (ke). Terminal half-life (t1/2) was estimated from first order kinetics: t1/2=0.693/ke.
Briefly, prior to extraction, frozen samples were thawed on ice. For plasma extraction, 50 μL of the calibration standards or samples were transferred into silanized microcentrifuge tubes. Sample preparation involved a single liquid extraction by addition of 300 μL of methanol as extraction solution with internal standard (i.e., 5 μM of 2-PMSA in methanol), followed by vortexing for 30 s and then centrifugation at 12000 g for 10 min. Supernatant was transferred (˜250 μL) and evaporated to dryness at 40° C. under a gentle stream of nitrogen. The residue was reconstituted with 100 μL of derivatizing agent, n-butanol with 3N HCl, and samples were vortexed. The samples were heated at ˜60 OC in a shaking water bath for 30 min. At the end of 30 min, the derivatized samples were allowed to cool at room temperature and dried again for removal of derivatizing reagent, under a gentle stream of nitrogen. The residue was reconstituted in 100 μL of 30% acetonitrile in water v/v. The samples were vortexed and centrifuged again. ˜80 μL supernatant was transferred to a 250 μL polypropylene vial sealed with a Teflon cap and a volume of 10 μL was injected onto the ultra-performance liquid chromatography (UPLC) instrument for quantitative analysis. Chromatographic analysis was performed using an Accela™ ultra high-performance system consisting of an analytical pump, and an autosampler coupled with TSQ Vantage mass spectrometer (Thermo Fisher Scientific Inc., Waltham Mass.). […] The mobile phase used was composed of 0.1% formic acid in acetonitrile and 0.1% formic acid in H2O with gradient elution, starting with 20% (organic) linearly increasing to 65% up to 2.5 min, maintaining at 65% (2.5-3.5 min) and reequilibrating to 30% by 5 min. The total run time for each analyte was 5.0 min.

[3] = Metabolic stability in mouse plasma; assay type: in vitro ADME; conditions: 10 μM, 37° C.
Experimental: (§3) For metabolic stability, plasma (mouse, dog, monkey and human) and liver microsomes (mouse, dog, monkey and human) were used. For stability, prodrugs (10 μM) were spiked in each matrix and incubated in an orbital shaker at 37° C. At predetermined times (0, 30 and 60 min), 100 μL aliquots of the mixture in triplicate were removed and the reaction quenched by addition of three times the volume of ice cold acetonitrile spiked with the internal standard (losartan 5 μM). The samples were vortexed for 30 s and centrifuged 12000 g for 10 min. 50 μL supernatant diluted with 50 μL water was transferred to a 250 μL polypropylene vial sealed with a Teflon cap. Prodrug disappearance was monitored over time using a liquid chromatography and tandem mass spectrometry (LC/MS/MS) method as described below.
as §1, §2

[4] = Metabolic stability in mouse liver S9; assay type: in vitro ADME; conditions: Mouse S9, 10 μM, 37° C.
[5] = Metabolic stability in mouse liver microsomes; assay type: in vitro ADME; conditions: 10 μM, 37° C.
Experimental: as §3, §1, §2

[6] = In vitro metabolic stability screen in plasma and liver subcellular fractions (results in words); assay type: in vitro ADME; conditions: 60 min incubation
Experimental: as §3, §1
For quantification of compound remaining, disappearance of prodrugs was measured from ratio of peak areas of analyte to IS. Percentage remaining was calculated in the following manner:
In general, the prodrugs were screened by an in vitro metabolic stability screen, and if positive, followed by an in vivo single time point pharmacokinetic study, and in select cases, an in vivo full time course pharmacokinetic study (FIG. 3). In this Example, the four acidic functional groups in 2-PMPA were systematically capped. The carboxylic acids were first masked with simple alkyl esters (Compounds 1, 2, and 3). In vitro chemical and metabolic stability of the prodrugs then were conducted, following 60 min incubation in plasma stability screens for prodrugs.

[7] = Metabolic stability in human plasma; assay type: in vitro ADME; conditions: 10 μM, 37° C.
Experimental: as §3, §1, §2

[8] = Metabolic stability in human liver microsomes; assay type: in vitro ADME; conditions: 10 μM, 37° C.
Experimental: as §3, §1, §2

Row | SMILES | chemical stability [1] | Percentage remaining ([3]; 0 min) | Percentage remaining ([3]; 30 min) | Percentage remaining ([3]; 60 min) | Percentage remaining ([5]; 0 min) | Percentage remaining ([5]; 30 min) | Percentage remaining ([5]; 60 min) | other results
1 | CC(C)OC(=O)OCOP(=O)(CC(CCC(=O)O)C(=O)O)OCOC(=O)OC(C)C (stereo not shown) [Compound 4] | chemical instability |  |  |  |  |  |  | 
2 | COC(=O)C(CCC(=O)O)CP(=O)(OCOC(=O)C(C)(C)C)OCOC(=O)C(C)(C)C (stereo not shown) [Compound 8, 4-({Bis[(pivaloyloxy)methoxy]phosphoryl}methyl)-5-methoxy-5-oxopentanoic acid] |  |  |  |  |  |  |  | oral availability of prodrug [2]: good oral availability
3 | COC(=O)C(CCC(=O)O)CP(=O)(O)O (stereo not shown) [Compound 9] |  |  |  |  |  |  |  | oral availability of prodrug [2]: good oral availability
4 | COC(=O)CCC(CP(=O)(OCOC(=O)C(C)(C)C)OCOC(=O)C(C)(C)C)C(=O)OCOC(=O)C(C)(C)C (stereo not shown) [Compound 11] | sufficient chemical stability |  |  |  |  |  |  | 
5 | COC(=O)CCC(CP(=O)(OCOC(=O)C(C)(C)C)OCOC(=O)C(C)(C)C)C(=O)OC (stereo not shown) [Compound 14] | fall apart easily even in HBSS buffer | 100% | 0% | 0% | 100% | 2% | 0% | Percentage remaining ([1]; 0 min): 100%; Percentage remaining ([1]; 30 min): 46%; Percentage remaining ([1]; 60 min): 21%; Percentage remaining ([4]; 0 min): 100%; Percentage remaining ([4]; 30 min): 1%; Percentage remaining ([4]; 60 min): 0%; permeability in vivo [2]: most permeable
6 | CCCCOC(=O)c1ccccc1OP(=O)(CC(CCC(=O)OC)C(=O)OC)Oc1ccccc1C(=O)OCCCC (stereo not shown) [Compound 16, Dimethyl 2-({bis[2-(butoxycarbonyl)phenoxy]phosphoryl}methyl)pentanedioate] | stable in HBSS buffer | 100% | 3% | 1% | 100% | 3% | 2% | Percentage remaining ([1]; 0 min): 100%; Percentage remaining ([1]; 30 min): 100%; Percentage remaining ([1]; 60 min): 95%; Percentage remaining ([4]; 0 min): 100%; Percentage remaining ([4]; 30 min): 1%; Percentage remaining ([4]; 60 min): 2%
7 | CCOC(=O)[C@H](Cc1ccccc1)NP(=O)(CC(CCC(=O)OC)C(=O)OC)N[C@@H](Cc1ccccc1)C(=O)OCC (stereo partly drawn) [Compound 17, Dimethyl 2-((bis(((S)-1-ethoxy-1-oxo-3-phenylpropan-2-yl)amino)phosphoryl)methyl)pentanedioate] | stable in HBSS buffer | 100% | 2% | 1% | 100% | 2% | 0.1% | Percentage remaining ([1]; 0 min): 100%; Percentage remaining ([1]; 30 min): 93%; Percentage remaining ([1]; 60 min): 93%; Percentage remaining ([4]; 0 min): 100%; Percentage remaining ([4]; 30 min): 0%; Percentage remaining ([4]; 60 min): 0.1%
8 | CCCCOC(=O)c1ccccc1OP(=O)(CC(CCC(=O)O)C(=O)OC)Oc1ccccc1C(=O)OCCCC (stereo not shown) [Compound 21, 4-({Bis[2-(butoxycarbonyl)phenoxy]phosphoryl}methyl)-5-methoxy-5-oxopentanoic acid] |  |  |  |  |  |  |  | permeability in vivo [2]: did not show a high permeability in vivo
9 | CCCCCCCCCCOP(=O)(CC(CCC(=O)O)C(=O)OC)OCCCCCCCCCC (stereo not shown) [Compound 22, 4-{[Bis(decyloxy)phosphoryl]methyl}-5-methoxy-5-oxopentanoic acid] |  |  |  |  |  |  |  | permeability in vivo [2]: did not show a high permeability in vivo
10 | CC(C)OC(=O)OCOP(=O)(CC(CCC(=O)O)C(=O)OCC(=O)N(C)C)OCOC(=O)OC(C)C (stereo not shown) [Compound 25] |  | 100% | 0% | 0% | 100% | 49% | 22% | Percentage remaining ([7]; 0 min): 100%; Percentage remaining ([7]; 30 min): 109%; Percentage remaining ([7]; 60 min): 76%; Percentage remaining ([8]; 0 min): 100%; Percentage remaining ([8]; 30 min): 80%; Percentage remaining ([8]; 60 min): 61%
11 | CC(C)OC(=O)OC(C)OP(=O)(CC(CCC(=O)O)C(=O)OCC(=O)N(C)C)OC(C)OC(=O)OC(C)C (stereo not shown) [Compound 26] |  | 100% | 3% | 1% | 100% | 86% | 68% | Percentage remaining ([7]; 0 min): 100%; Percentage remaining ([7]; 30 min): 98%; Percentage remaining ([7]; 60 min): 92%; Percentage remaining ([8]; 0 min): 100%; Percentage remaining ([8]; 30 min): 92%; Percentage remaining ([8]; 60 min): 81%

Now from value to compound, other results behind:

Row | chemical stability [1] | Percentage remaining ([3]; 0 min) | Percentage remaining ([3]; 30 min) | Percentage remaining ([3]; 60 min) | Percentage remaining ([5]; 0 min) | Percentage remaining ([5]; 30 min) | Percentage remaining ([5]; 60 min) | SMILES | other results
12 | chemical instability |  |  |  |  |  |  | CC(C)(C)C(=O)OCOP(=O)(CC(CCC(=O)O)C(=O)O)OCOC(=O)C(C)(C)C (stereo not shown) [Compound 5] | 
13 | sufficient chemical stability |  |  |  |  |  |  | CCCCCCCCCCCCCCCCOCCCOP(=O)(CC(CCC(=O)O)C(=O)O)OCCCOCCCCCCCCCCCCCCCC (stereo not shown) [Compound 12, 2-((Bis(3-(hexadecyloxy)propoxy)phosphoryl)methyl)pentanedioic acid] | 
14 |  | 100% | 2% | 1% | 100% | 99% | 100% | CCOCCOCCOCCOCCOCCOCCOP(=O)(CC(CCC(=O)OC)C(=O)OC)OCCOCCOCCOCCOCCOCCOCC (stereo not shown) [Compound 13, Dimethyl 2-((bis((3,6,9,12,15,18-hexaoxaicosyl)oxy)phosphoryl)methyl)pentanedioate] | Percentage remaining ([1]; 0 min): 100%; Percentage remaining ([1]; 30 min): 99%; Percentage remaining ([1]; 60 min): 101%; Percentage remaining ([4]; 0 min): 100%; Percentage remaining ([4]; 30 min): 106%; Percentage remaining ([4]; 60 min): 100%; in vitro metabolic stability [6]: too stable in some of the samples
